{"source": "ChEMBL document CHEMBL3885881", "about": "“DrugMatrix”", "species": "Rattus norvegicus", "assay": "DrugMatrix - Regimen: Daily Repeat", "assay_type": "toxicity, organism-based, Sprague-Dawley", "parameters": "regimen Daily Repeat, gender Male, age 6-8 weeks", "settings": "in vivo, po, route oral GAVAGE, vehicle .5 % CMC; for TOTAL PROTEIN / ALKALINE PHOSPHATASE / ASPARTATE AMINOTRANSFERASE / BLOOD UREA NITROGEN / CHLORIDE / CHOLESTEROL / CREATINE PHOSPHOKINASE / CREATININE / GLUCOSE / PHOSPHORUS / POTASSIUM / SODIUM / TOTAL BILIRUBIN / ALANINE AMINOTRANSFERASE: tissue Plasma; for ABSOLUTE BASOPHIL / BASOPHIL / EOSINOPHIL / ERYTHROCYTE COUNT / HEMATOCRIT / HEMOGLOBIN / LEUKOCYTE COUNT / LYMPHOCYTE / MEAN CORPUSCULAR HEMOGLOBIN / MEAN CORPUSCULAR HEMOGLOBIN CONCENTRATION / MEAN CORPUSCULAR VOLUME / MONOCYTE / NEUTROPHIL / PLATELET COUNT: tissue Blood", "key": {"[1]": {"settings": "20 mg/kg, 120 h, dose level Low, time 5 day"}, "[2]": {"settings": "89 mg/kg, 72 h, dose level High, time 3 day"}, "[3]": {"settings": "89 mg/kg, 120 h, dose level High, time 5 day"}}, "data": [{"smiles": "CC(C(=O)O)c1ccc2oc(-c3ccc(Cl)cc3)nc2c1", "note": "(centres undefined) [BENOXAPROFEN]", "values": [{"measurement": "TOTAL PROTEIN", "setting": "20 mg/kg, 72 h, dose level Low, time 3 day", "result": 5.7, "unit": "G/DL"}, {"measurement": "ABSOLUTE BASOPHIL", "setting": "[1]", "result": 56.7, "unit": "cells/µL"}, {"measurement": "BASOPHIL", "setting": "[1]", "result": 0.6, "unit": "%"}, {"measurement": "EOSINOPHIL", "setting": "[1]", "result": 0.53, "unit": "%"}, {"measurement": "ERYTHROCYTE COUNT", "setting": "[1]", "result": 7.47, "unit": "x10E6/uL"}, {"measurement": "HEMATOCRIT", "setting": "[1]", "result": 48.6, "unit": "%"}, {"measurement": "HEMOGLOBIN", "setting": "[1]", "result": 15.37, "unit": "G/DL"}, {"measurement": "LEUKOCYTE COUNT", "setting": "[1]", "result": 8.81, "unit": "x10E3/uL"}, {"measurement": "LYMPHOCYTE", "setting": "[1]", "result": 79.3, "unit": "%"}, {"measurement": "MEAN CORPUSCULAR HEMOGLOBIN", "setting": "[1]", "result": 20.53, "unit": "pg"}, {"measurement": "MEAN CORPUSCULAR HEMOGLOBIN CONCENTRATION", "setting": "[1]", "result": 31.57, "unit": "G/DL"}, {"measurement": "MEAN CORPUSCULAR VOLUME", "setting": "[1]", "result": 65.03, "unit": "fL"}, {"measurement": "MONOCYTE", "setting": "[1]", "result": 2.53, "unit": "%"}, {"measurement": "NEUTROPHIL", "setting": "[1]", "result": 15.73, "unit": "%"}, {"measurement": "PLATELET COUNT", "setting": "[1]", "result": 1097, "unit": "x10E3/uL"}, {"measurement": "ALKALINE PHOSPHATASE", "setting": "[1]", "result": 357.67, "unit": "u/L"}, {"measurement": "ASPARTATE AMINOTRANSFERASE", "setting": "[1]", "result": 65, "unit": "u/L"}, {"measurement": "BLOOD UREA NITROGEN", "setting": "[1]", "result": 13.33, "unit": "mg/dL"}, {"measurement": "CHLORIDE", "setting": "[1]", "result": 104.67, "unit": "MEQ/L"}, {"measurement": "CHOLESTEROL", "setting": "[1]", "result": 59.33, "unit": "mg/dL"}, {"measurement": "CREATINE PHOSPHOKINASE", "setting": "[1]", "result": 158.33, "unit": "u/L"}, {"measurement": "CREATININE", "setting": "[1]", "result": 0.43, "unit": "mg/dL"}, {"measurement": "GLUCOSE", "setting": "[1]", "result": 175.33, "unit": "mg/dL"}, {"measurement": "PHOSPHORUS", "setting": "[1]", "result": 12.03, "unit": "mg/dL"}, {"measurement": "POTASSIUM", "setting": "[1]", "result": 7.37, "unit": "MEQ/L"}, {"measurement": "SODIUM", "setting": "[1]", "result": 150.67, "unit": "MEQ/L"}, {"measurement": "TOTAL BILIRUBIN", "setting": "[1]", "result": 0.33, "unit": "mg/dL"}, {"measurement": "TOTAL PROTEIN", "setting": "[1]", "result": 6.43, "unit": "G/DL"}, {"measurement": "ABSOLUTE BASOPHIL", "setting": "[2]", "result": 46.7, "unit": "cells/µL"}, {"measurement": "BASOPHIL", "setting": "[2]", "result": 0.87, "unit": "%"}, {"measurement": "EOSINOPHIL", "setting": "[2]", "result": 0.43, "unit": "%"}, {"measurement": "ERYTHROCYTE COUNT", "setting": "[2]", "result": 5.74, "unit": "x10E6/uL"}, {"measurement": "HEMATOCRIT", "setting": "[2]", "result": 35.5, "unit": "%"}, {"measurement": "HEMOGLOBIN", "setting": "[2]", "result": 11.63, "unit": "G/DL"}, {"measurement": "LEUKOCYTE COUNT", "setting": "[2]", "result": 4.56, "unit": "x10E3/uL"}, {"measurement": "LYMPHOCYTE", "setting": "[2]", "result": 64.07, "unit": "%"}, {"measurement": "MEAN CORPUSCULAR HEMOGLOBIN", "setting": "[2]", "result": 20.27, "unit": "pg"}, {"measurement": "MEAN CORPUSCULAR HEMOGLOBIN CONCENTRATION", "setting": "[2]", "result": 32.8, "unit": "G/DL"}, {"measurement": "MEAN CORPUSCULAR VOLUME", "setting": "[2]", "result": 61.93, "unit": "fL"}, {"measurement": "MONOCYTE", "setting": "[2]", "result": 4.3, "unit": "%"}, {"measurement": "NEUTROPHIL", "setting": "[2]", "result": 29.23, "unit": "%"}, {"measurement": "PLATELET COUNT", "setting": "[2]", "result": 1116, "unit": "x10E3/uL"}, {"measurement": "ALANINE AMINOTRANSFERASE", "setting": "[2]", "result": 30.67, "unit": "u/L"}, {"measurement": "ALKALINE PHOSPHATASE", "setting": "[2]", "result": 216.33, "unit": "u/L"}, {"measurement": "ASPARTATE AMINOTRANSFERASE", "setting": "[2]", "result": 71, "unit": "u/L"}, {"measurement": "BLOOD UREA NITROGEN", "setting": "[2]", "result": 13, "unit": "mg/dL"}, {"measurement": "CHLORIDE", "setting": "[2]", "result": 105, "unit": "MEQ/L"}, {"measurement": "CHOLESTEROL", "setting": "[2]", "result": 81, "unit": "mg/dL"}, {"measurement": "CREATINE PHOSPHOKINASE", "setting": "[2]", "result": 293, "unit": "u/L"}, {"measurement": "CREATININE", "setting": "[2]", "result": 0.37, "unit": "mg/dL"}, {"measurement": "GLUCOSE", "setting": "[2]", "result": 179, "unit": "mg/dL"}, {"measurement": "PHOSPHORUS", "setting": "[2]", "result": 11.33, "unit": "mg/dL"}, {"measurement": "POTASSIUM", "setting": "[2]", "result": 6.47, "unit": "MEQ/L"}, {"measurement": "SODIUM", "setting": "[2]", "result": 142.33, "unit": "MEQ/L"}, {"measurement": "TOTAL BILIRUBIN", "setting": "[2]", "result": 0.33, "unit": "mg/dL"}, {"measurement": "TOTAL PROTEIN", "setting": "[2]", "result": 4.93, "unit": "G/DL"}, {"measurement": "ABSOLUTE BASOPHIL", "setting": "[3]", "result": 80, "unit": "cells/µL"}, {"measurement": "BASOPHIL", "setting": "[3]", "result": 0.75, "unit": "%"}, {"measurement": "EOSINOPHIL", "setting": "[3]", "result": 0.5, "unit": "%"}, {"measurement": "ERYTHROCYTE COUNT", "setting": "[3]", "result": 3.39, "unit": "x10E6/uL"}, {"measurement": "HEMATOCRIT", "setting": "[3]", "result": 21.15, "unit": "%"}, {"measurement": "HEMOGLOBIN", "setting": "[3]", "result": 6.75, "unit": "G/DL"}, {"measurement": "LEUKOCYTE COUNT", "setting": "[3]", "result": 9.48, "unit": "x10E3/uL"}, {"measurement": "LYMPHOCYTE", "setting": "[3]", "result": 62, "unit": "%"}, {"measurement": "MEAN CORPUSCULAR HEMOGLOBIN", "setting": "[3]", "result": 20.05, "unit": "pg"}, {"measurement": "MEAN CORPUSCULAR HEMOGLOBIN CONCENTRATION", "setting": "[3]", "result": 32.38, "unit": "G/DL"}, {"measurement": "MEAN CORPUSCULAR VOLUME", "setting": "[3]", "result": 61.98, "unit": "fL"}, {"measurement": "MONOCYTE", "setting": "[3]", "result": 3.5, "unit": "%"}, {"measurement": "NEUTROPHIL", "setting": "[3]", "result": 36, "unit": "%"}, {"measurement": "PLATELET COUNT", "setting": "[3]", "result": 1019.25, "unit": "x10E3/uL"}, {"measurement": "ALANINE AMINOTRANSFERASE", "setting": "[3]", "result": 205.75, "unit": "u/L"}, {"measurement": "ALKALINE PHOSPHATASE", "setting": "[3]", "result": 329.75, "unit": "u/L"}, {"measurement": "ASPARTATE AMINOTRANSFERASE", "setting": "[3]", "result": 292.5, "unit": "u/L"}, {"measurement": "BLOOD UREA NITROGEN", "setting": "[3]", "result": 38.75, "unit": "mg/dL"}, {"measurement": "CHLORIDE", "setting": "[3]", "result": 103.5, "unit": "MEQ/L"}, {"measurement": "CHOLESTEROL", "setting": "[3]", "result": 101, "unit": "mg/dL"}, {"measurement": "CREATINE PHOSPHOKINASE", "setting": "[3]", "result": 255.75, "unit": "u/L"}, {"measurement": "CREATININE", "setting": "[3]", "result": 0.33, "unit": "mg/dL"}, {"measurement": "GLUCOSE", "setting": "[3]", "result": 163.25, "unit": "mg/dL"}, {"measurement": "PHOSPHORUS", "setting": "[3]", "result": 10.22, "unit": "mg/dL"}, {"measurement": "POTASSIUM", "setting": "[3]", "result": 5.38, "unit": "MEQ/L"}, {"measurement": "SODIUM", "setting": "[3]", "result": 143.25, "unit": "MEQ/L"}, {"measurement": "TOTAL BILIRUBIN", "setting": "[3]", "result": 0.42, "unit": "mg/dL"}, {"measurement": "TOTAL PROTEIN", "setting": "[3]", "result": 4.65, "unit": "G/DL"}]}]}
